According to ChEMBL document CHEMBL1137084, “Synthesis of a 5-methylindolyl-containing macrocycle that displays ultrapotent Grb2 SH2 domain-binding affinity” (J Med Chem, 2004):

Assays:
[1] = target: T1, Growth factor receptor-bound protein 2 (Homo sapiens, UniProt P62993); test: In vitro binding affinity in whole cells for Grb2 SH2 domain; assay type: cell-based
[2] = target: T1, Growth factor receptor-bound protein 2; test: In vitro binding affinity in extracellular ELISA-based assay for Grb2 SH2 domain
MDA-MB-453 = test: Inhibition of growth-factor-stimulated MDA-MB-453 breast cancer cell proliferation; assay type: functional, cell-based; settings: Homo sapiens
[3] = target: T1, Growth factor receptor-bound protein 2; test: In vitro binding affinity for Grb2 SH2 domain
[4] = target: T1, Growth factor receptor-bound protein 2; test: Inhibition of Grb2 SH2 domain binding to erbB-2

IC50 [1] | IC50 [2] | IC50 (MDA-MB-453) | Kd [3] | IC50 [4] | SMILES
≥ 10000 nM |  |  |  |  | NC(=O)C[C@@H]1NC(=O)C2(CCCCC2)NC(=O)C[C@@H](c2ccc(CP(=O)(O)O)cc2)/C=C/C[C@@H](Cc2cccc3ccccc23)CNC1=O
≤ 1000 nM | 2 nM |  |  |  | NC(=O)C[C@@H]1NC(=O)C2(CCCCC2)NC(=O)[C@@H](CC(=O)O)[C@@H](c2ccc(CP(=O)(O)O)cc2)/C=C/C[C@@H](Cc2cccc3ccccc23)CNC1=O
 |  | 600 nM | 0.093 nM | ≤ 10 nM | Cc1ccc2c(ccn2C[C@@H]2C/C=C/[C@H](c3ccc(CP(=O)(O)O)cc3)[C@H](CC(=O)O)C(=O)NC3(CCCCC3)C(=O)N[C@@H](CC(N)=O)C(=O)NC2)c1 [listing 1 of 2 here]
 |  |  | 0.075 nM |  | Cc1ccc2c(ccn2C[C@@H]2C/C=C/[C@H](c3ccc(CP(=O)(O)O)cc3)[C@H](CC(=O)O)C(=O)NC3(CCCCC3)C(=O)N[C@@H](CC(N)=O)C(=O)NC2)c1 [listing 2 of 2 here]
